Residues, ends and D or L forms follow the SMILES beside them.
Target: Angiotensin-converting enzyme (Homo sapiens) (UniProt P12821)
Test: Inhibition of ACE (unknown origin)
Design: unit not given here

Chain of Angiotensin-converting enzyme (Homo sapiens) (P12821 whole entry): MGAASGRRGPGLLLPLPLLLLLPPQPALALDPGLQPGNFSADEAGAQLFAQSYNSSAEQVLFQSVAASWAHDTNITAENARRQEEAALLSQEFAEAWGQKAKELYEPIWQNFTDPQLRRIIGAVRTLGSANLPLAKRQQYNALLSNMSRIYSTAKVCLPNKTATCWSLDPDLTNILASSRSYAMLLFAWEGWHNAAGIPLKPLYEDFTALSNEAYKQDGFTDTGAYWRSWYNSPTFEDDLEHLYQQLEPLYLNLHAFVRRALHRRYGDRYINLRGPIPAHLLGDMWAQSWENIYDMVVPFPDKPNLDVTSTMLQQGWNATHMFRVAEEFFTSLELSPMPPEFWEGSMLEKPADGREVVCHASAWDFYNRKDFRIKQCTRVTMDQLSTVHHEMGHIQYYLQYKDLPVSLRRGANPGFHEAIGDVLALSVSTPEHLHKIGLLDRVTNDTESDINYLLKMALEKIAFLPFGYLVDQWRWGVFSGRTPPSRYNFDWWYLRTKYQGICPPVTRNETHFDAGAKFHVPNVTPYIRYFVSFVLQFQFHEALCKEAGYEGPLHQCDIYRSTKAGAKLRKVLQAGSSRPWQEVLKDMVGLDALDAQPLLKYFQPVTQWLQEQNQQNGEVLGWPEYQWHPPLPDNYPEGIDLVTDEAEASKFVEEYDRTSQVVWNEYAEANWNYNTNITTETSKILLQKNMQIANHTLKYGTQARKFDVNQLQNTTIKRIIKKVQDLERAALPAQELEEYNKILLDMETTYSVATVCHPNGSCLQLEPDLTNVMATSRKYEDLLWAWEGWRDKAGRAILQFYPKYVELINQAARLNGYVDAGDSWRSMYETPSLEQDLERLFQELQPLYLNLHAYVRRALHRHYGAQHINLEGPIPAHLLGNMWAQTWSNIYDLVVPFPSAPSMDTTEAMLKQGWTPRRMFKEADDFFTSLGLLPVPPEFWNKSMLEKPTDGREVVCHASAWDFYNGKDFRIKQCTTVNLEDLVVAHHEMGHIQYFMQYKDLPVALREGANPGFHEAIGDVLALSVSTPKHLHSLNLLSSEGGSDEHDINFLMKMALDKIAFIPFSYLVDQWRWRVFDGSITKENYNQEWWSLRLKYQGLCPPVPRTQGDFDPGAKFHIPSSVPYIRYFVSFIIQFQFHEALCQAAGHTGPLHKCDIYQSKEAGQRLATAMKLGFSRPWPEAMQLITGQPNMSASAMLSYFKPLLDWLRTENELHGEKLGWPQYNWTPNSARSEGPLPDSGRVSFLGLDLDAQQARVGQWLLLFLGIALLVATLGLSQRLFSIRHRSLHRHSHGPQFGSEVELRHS

| SMILES | logIC50 |
| --- | --- |
| CC(C)C[C@H](N)C(=O)N[C@@H](Cc1c[nH]c2ccccc12)C(=O)O | 1.24 |
| CC[C@H](C)[C@H](N)C(=O)N[C@@H](Cc1c[nH]c2ccccc12)C(=O)O | 0.67 |
| C[C@H](N)C(=O)N[C@@H](Cc1ccccc1)C(=O)O | 1.88 |
| NC(N)=NCCC[C@H](N)C(=O)N[C@@H](Cc1ccccc1)C(=O)O | 1.97 |
| NCCCC[C@H](N)C(=O)N[C@@H](Cc1ccccc1)C(=O)O | 1.45 |
| CC(C)[C@H](NC(=O)[C@H](C)N)C(=O)NCC(=O)N1CCC[C@H]1C(=O)O (H-AVGP-OH) | 0.49 |
| C[C@H](N)C(=O)N[C@@H](Cc1c[nH]c2ccccc12)C(=O)O (H-Ala-Trp-OH) | 1.08 |
| CC(C)[C@H](NC(=O)[C@H](C)N)C(=O)N1CCC[C@H]1C(=O)O (H-Ala-Val-Pro-OH) | 2.53 |
| NC(N)=NCCC[C@H](N)C(=O)N1CCC[C@H]1C(=O)O (H-Arg-Pro-OH) | 1.32 |
| NC(N)=NCCC[C@H](N)C(=O)N[C@@H](Cc1c[nH]c2ccccc12)C(=O)O (H-Arg-Trp-OH) | 1.2 |
| NC(=O)C[C@H](N)C(=O)N[C@@H](Cc1ccccc1)C(=O)O (H-Asn-Phe-OH) | 1.67 |
| N[C@@H](CC(=O)O)C(=O)N[C@@H](Cc1ccccc1)C(=O)O (H-Asp-Phe-OH) | 2.56 |
| N=C(N)NCCC[C@H](NC(=O)CN)C(=O)N1CCC[C@H]1C(=O)O (H-Gly-Arg-Pro-OH) | 1.3 |
| NCCCC[C@H](NC(=O)CN)C(=O)N1CCC[C@H]1C(=O)O (H-Gly-Lys-Pro-OH) | 2.55 |
| NCC(=O)N[C@@H](Cc1ccccc1)C(=O)O (H-Gly-Phe-OH) | 2.44 |
| NCC(=O)N1CCC[C@H]1C(=O)O (H-Gly-Pro-OH) | 2.56 |
| NCC(=O)N[C@@H](Cc1c[nH]c2ccccc12)C(=O)O (H-Gly-Trp-OH) | 1.4 |
| CC[C@H](C)[C@H](N)C(=O)N[C@@H](CCCNC(=N)N)C(=O)N1CCC[C@H]1C(=O)O (H-Ile-Arg-Pro-OH) | -0.13 |
| CC[C@H](C)[C@H](N)C(=O)N[C@@H](CCCCN)C(=O)N1CCC[C@H]1C(=O)O (H-Ile-Lys-Pro-OH) | 0.84 |
| CC[C@H](C)[C@H](N)C(=O)N1CCC[C@H]1C(=O)O (H-Ile-Pro-OH) | 2.11 |
| CC(C)C[C@H](N)C(=O)N[C@@H](CCCN=C(N)N)C(=O)N1CCC[C@H]1C(=O)O (H-Leu-Arg-Pro-OH) | -0.57 |
| CC(C)C[C@H](N)C(=O)N[C@@H](CCCCN)C(=O)N1CCC[C@H]1C(=O)O (H-Leu-Lys-Pro-OH) | 0.6 |
| NCCCC[C@H](N)C(=O)N1CCC[C@H]1C(=O)O (H-Lys-Pro-OH) | 1.34 |
| CSCC[C@H](N)C(=O)N[C@@H](Cc1ccccc1)C(=O)O (H-Met-Phe-OH) | 1.65 |
| CSCC[C@H](N)C(=O)N[C@@H](Cc1c[nH]c2ccccc12)C(=O)O (H-Met-Trp-OH) | 1 |
| N[C@@H](Cc1ccccc1)C(=O)N1CCC[C@H]1C(=O)O (H-Phe-Pro-OH) | 2.5 |
| N[C@@H](Cc1ccccc1)C(=O)N[C@@H](Cc1ccc(O)cc1)C(=O)O (H-Phe-Tyr-OH) | 1.4 |
| C[C@@H](O)[C@H](N)C(=O)N[C@@H](Cc1ccccc1)C(=O)O (H-Thr-Phe-OH) | 1.95 |

Next, values leading:

| logIC50 | SMILES |
| --- | --- |
| 1.51 | CC(C)C[C@H](N)C(=O)N[C@@H](Cc1ccc(O)cc1)C(=O)O |
| 2.38 | CC(C)C[C@H](NC(=O)[C@H](C)N)C(=O)N1CCC[C@H]1C(=O)O (H-Ala-Leu-Pro-OH) |
| 1.28 | C[C@H](N)C(=O)N[C@@H](Cc1ccc(O)cc1)C(=O)O (H-Ala-Tyr-OH) |
| 1.71 | N=C(N)NCCC[C@H](N)C(=O)N[C@@H](Cc1ccc(O)cc1)C(=O)O (H-Arg-Tyr-OH) |
| 1.51 | NC(=O)C[C@H](N)C(=O)N[C@@H](Cc1ccc(O)cc1)C(=O)O (H-Asn-Tyr-OH) |
| 0.68 | CC(C)C[C@H](NC(=O)[C@@H](N)CC(=O)O)C(=O)N1CCC[C@H]1C(=O)O (H-Asp-Leu-Pro-OH) |
| 2 | N[C@@H](CC(=O)O)C(=O)N[C@@H](Cc1ccc(O)cc1)C(=O)O (H-Asp-Tyr-OH) |
| 1 | CC(C)[C@H](NC(=O)[C@@H](N)Cc1ccccc1)C(=O)N[C@@H](C)C(=O)N1CCC[C@H]1C(=O)O (H-FVAP-OH) |
| 0.59 | C[C@H](NC(=O)[C@H](Cc1c[nH]c2ccccc12)NC(=O)CN)C(=O)N1CCC[C@H]1C(=O)O (H-GWAP-OH) |
| 2.51 | NCC(=O)N[C@@H](CCC(=O)O)C(=O)N1CCC[C@H]1C(=O)O (H-Gly-Glu-Pro-OH) |
| 2.32 | NCC(=O)N[C@@H](Cc1ccc(O)cc1)C(=O)O (H-Gly-Tyr-OH) |
| 1.42 | N[C@@H](Cc1cnc[nH]1)C(=O)N[C@@H](Cc1ccc(O)cc1)C(=O)O (H-His-Tyr-OH) |
| 2.24 | CC[C@H](C)[C@H](N)C(=O)N[C@@H](CC(C)C)C(=O)N1CCC[C@H]1C(=O)N1CCC[C@H]1C(=O)O (H-ILPP-OH) |
| 0.43 | CC[C@H](C)[C@H](N)C(=O)N[C@@H](C)C(=O)N1CCC[C@H]1C(=O)O (H-Ile-Ala-Pro-OH) |
| 0.2 | CC[C@H](C)[C@H](N)C(=O)N[C@@H](CCC(=O)O)C(=O)N1CCC[C@H]1C(=O)O (H-Ile-Glu-Pro-OH) |
| 0.79 | CC[C@H](C)[C@H](N)C(=O)N[C@@H](Cc1ccc(O)cc1)C(=O)O (H-Ile-Tyr-OH) |

| logIC50 | SMILES |
| --- | --- |
| 2.1 | CC(C)C[C@H](N)C(=O)N[C@H](C(=O)N1CCC[C@H]1C(=O)N1CCC[C@H]1C(=O)O)C(C)C (H-LVPP-OH) |
| 0.54 | CC(C)C[C@H](N)C(=O)N[C@@H](C)C(=O)N1CCC[C@H]1C(=O)O (H-Leu-Ala-Pro-OH) |
| 1.76 | CC(C)C[C@H](N)C(=O)N[C@@H](CC(N)=O)C(=O)N1CCC[C@H]1C(=O)O (H-Leu-Asn-Pro-OH) |
| 0.28 | CC(C)C[C@H](N)C(=O)N[C@@H](CCC(N)=O)C(=O)N1CCC[C@H]1C(=O)O (H-Leu-Gln-Pro-OH) |
| 0.28 | CC(C)C[C@H](N)C(=O)N[C@@H](CCC(=O)O)C(=O)N1CCC[C@H]1C(=O)O (H-Leu-Glu-Pro-OH) |
| 0.23 | CC(C)C[C@H](N)C(=O)N[C@@H](CO)C(=O)N1CCC[C@H]1C(=O)O (H-Leu-Ser-Pro-OH) |
| 0.82 | CC(C)C[C@H](N)C(=O)N[C@@H](Cc1ccc(O)cc1)C(=O)N1CCC[C@H]1C(=O)O (H-Leu-Tyr-Pro-OH) |
| 1.82 | CSCC[C@H](N)C(=O)N[C@@H](CC(N)=O)C(=O)N1CCC[C@H]1C(=O)O (H-Met-Asn-Pro-OH) |
| 2.85 | NCCCC[C@H](NC(=O)[C@@H]1CCCN1)C(=O)N[C@@H](Cc1cnc[nH]1)C(=O)N1CCC[C@H]1C(=O)O (H-PKHP-OH) |
| 0.58 | C[C@H](NC(=O)[C@@H](N)Cc1ccccc1)C(=O)N1CCC[C@H]1C(=O)O (H-Phe-Ala-Pro-OH) |
| 1.08 | NC(=O)CC[C@H](NC(=O)[C@@H](N)Cc1ccccc1)C(=O)N1CCC[C@H]1C(=O)O (H-Phe-Gln-Pro-OH) |
| 1.08 | N[C@@H](Cc1ccccc1)C(=O)N[C@@H](CCC(=O)O)C(=O)N1CCC[C@H]1C(=O)O (H-Phe-Glu-Pro-OH) |
| 2.93 | N[C@@H](CO)C(=O)N1CCC[C@H]1C(=O)N[C@@H](Cc1ccc(O)cc1)C(=O)N1CCC[C@H]1C(=O)O (H-SPYP-OH) |
| 1.82 | N[C@@H](CO)C(=O)N[C@@H](Cc1ccc(O)cc1)C(=O)O (H-Ser-Tyr-OH) |
| 2.32 | C[C@@H](O)[C@H](N)C(=O)N[C@@H](CC(N)=O)C(=O)N1CCC[C@H]1C(=O)O (H-Thr-Asn-Pro-OH) |

Source: ChEMBL document CHEMBL3352520, “CoMFA and CoMSIA analysis of ACE-inhibitory, antimicrobial and bitter-tasting peptides” (Eur J Med Chem, 2014)
